Experimental data as given in PubChem BioAssay (NCI).
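Results reflect a 48-hour exposure of cells in 96-well plates to compound at five concentrations. GI50 marks 50% less growth. At the TGI there is no net growth.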 *1 amine or outer side, *2 acyl side, *3 side chain or, on linkers, in order; H or OH if unused. Where a SMILES comes first, the peptide text is derived from it. [ ]: non-standard residue; d: D form. X38 = CSCCCC(N[*:1])C(=O)[*:2]

Assays:
Test in all cases: growth of human tumour cells (NCI), 48 h
SK-OV-3 ovarian = tested on: SK-OV-3 ovarian
SNB-75 CNS = tested on: SNB-75 CNS
MDA-MB-231 breast = tested on: MDA-MB-231 breast
HCC-2998 colon = tested on: HCC-2998 colon
HS 578T breast = tested on: HS 578T breast
HOP-92 NSCLC = tested on: HOP-92 NSCLC
EKVX NSCLC = tested on: EKVX NSCLC
DU-145 prostate = tested on: DU-145 prostate
K-562 leukemia = tested on: K-562 leukemia
A498 renal = tested on: A498 renal
PC-3 prostate = tested on: PC-3 prostate
ACHN renal = tested on: ACHN renal
786-0 renal = tested on: 786-0 renal
KM12 colon = tested on: KM12 colon
MCF7 breast = tested on: MCF7 breast
SR leukemia = tested on: SR leukemia
UACC-257 melanoma = tested on: UACC-257 melanoma
UACC-62 melanoma = tested on: UACC-62 melanoma
LOX IMVI melanoma = tested on: LOX IMVI melanoma
SW-620 colon = tested on: SW-620 colon
TK-10 renal = tested on: TK-10 renal
NCI-H226 lung = tested on: NCI-H226 lung
RPMI-8226 leukemia = tested on: RPMI-8226 leukemia
SNB-19 CNS = tested on: SNB-19 CNS
CCRF-CEM leukemia = tested on: CCRF-CEM leukemia
NCI-H23 lung = tested on: NCI-H23 lung
NCI-H460 lung = tested on: NCI-H460 lung
SK-MEL-2 melanoma = tested on: SK-MEL-2 melanoma
COLO 205 colon = tested on: COLO 205 colon
HCT-116 colon = tested on: HCT-116 colon
OVCAR-4 ovarian = tested on: OVCAR-4 ovarian
IGROV1 ovarian = tested on: IGROV1 ovarian
OVCAR-8 ovarian = tested on: OVCAR-8 ovarian
SF-268 CNS = tested on: SF-268 CNS
NCI-H522 lung = tested on: NCI-H522 lung
SF-539 CNS = tested on: SF-539 CNS
SK-MEL-28 melanoma = tested on: SK-MEL-28 melanoma
U251 CNS = tested on: U251 CNS
BT-549 breast = tested on: BT-549 breast
SK-MEL-5 melanoma = tested on: SK-MEL-5 melanoma
NCI/ADR-RES ovarian = tested on: NCI/ADR-RES ovarian
OVCAR-3 ovarian = tested on: OVCAR-3 ovarian
MALME-3M melanoma = tested on: MALME-3M melanoma
HCT-15 colon = tested on: HCT-15 colon
MOLT-4 leukemia = tested on: MOLT-4 leukemia
UO-31 renal = tested on: UO-31 renal
SN12C renal = tested on: SN12C renal
RXF 393 renal = tested on: RXF 393 renal
HOP-62 NSCLC = tested on: HOP-62 NSCLC
OVCAR-5 ovarian = tested on: OVCAR-5 ovarian
SF-295 CNS = tested on: SF-295 CNS
A549 NSCLC = tested on: A549 NSCLC
MDA-MB-435 = tested on: MDA-MB-435
HT29 colon = tested on: HT29 colon
HL-60(TB) leukemia = tested on: HL-60(TB) leukemia
M14 melanoma = tested on: M14 melanoma
T-47D breast = tested on: T-47D breast

Compound: Cc1ccc(N=C2CSc3nnc(-c4csc5c4CCCC5)n3N2)cc1
- GI50 (SK-OV-3 ovarian): 0.271 µM
- TGI (SK-OV-3 ovarian): > 50 µM
- GI50 (SNB-75 CNS): 0.13 µM
- TGI (SNB-75 CNS): 17.2 µM
- GI50 (MDA-MB-231 breast): 0.369 µM
- TGI (MDA-MB-231 breast): > 50 µM
- GI50 (HCC-2998 colon): 1.31 µM
- TGI (HCC-2998 colon): > 50 µM
- GI50 (HS 578T breast): 0.168 µM
- TGI (HS 578T breast): 40.2 µM
- GI50 (HOP-92 NSCLC): 1.97 µM
- TGI (HOP-92 NSCLC): > 50 µM
- GI50 (EKVX NSCLC): 0.209 µM
- TGI (EKVX NSCLC): > 50 µM
- GI50 (DU-145 prostate): 0.209 µM
- TGI (DU-145 prostate): > 50 µM
- GI50 (K-562 leukemia): 0.156 µM
- TGI (K-562 leukemia): > 50 µM
- GI50 (A498 renal): 0.0988 µM
- TGI (A498 renal): 0.412 µM
- GI50 (PC-3 prostate): 0.27 µM
- TGI (PC-3 prostate): > 50 µM
- GI50 (ACHN renal): 2.94 µM
- TGI (ACHN renal): > 50 µM
- GI50 (786-0 renal): 0.297 µM
- TGI (786-0 renal): > 50 µM
- GI50 (KM12 colon): 0.226 µM
- TGI (KM12 colon): > 50 µM
- GI50 (MCF7 breast): 0.165 µM
- TGI (MCF7 breast): > 50 µM
- GI50 (SR leukemia): 0.179 µM
- TGI (SR leukemia): > 50 µM
- GI50 (UACC-257 melanoma): > 50 µM
- TGI (UACC-257 melanoma): > 50 µM
- GI50 (UACC-62 melanoma): 0.277 µM
- TGI (UACC-62 melanoma): > 50 µM
- GI50 (LOX IMVI melanoma): 0.302 µM
- TGI (LOX IMVI melanoma): > 50 µM
- GI50 (SW-620 colon): 0.204 µM
- TGI (SW-620 colon): > 50 µM
- GI50 (TK-10 renal): > 50 µM
- TGI (TK-10 renal): > 50 µM
- GI50 (NCI-H226 lung): > 50 µM
- TGI (NCI-H226 lung): > 50 µM
- GI50 (RPMI-8226 leukemia): 0.203 µM
- TGI (RPMI-8226 leukemia): > 50 µM
- GI50 (SNB-19 CNS): 0.222 µM
- TGI (SNB-19 CNS): > 50 µM
- GI50 (CCRF-CEM leukemia): 0.158 µM
- TGI (CCRF-CEM leukemia): > 50 µM
- GI50 (NCI-H23 lung): 0.295 µM
- TGI (NCI-H23 lung): > 50 µM
- GI50 (NCI-H460 lung): 0.181 µM
- TGI (NCI-H460 lung): > 50 µM
- GI50 (SK-MEL-2 melanoma): 0.221 µM
- TGI (SK-MEL-2 melanoma): > 50 µM
- GI50 (COLO 205 colon): 0.191 µM
- TGI (COLO 205 colon): > 50 µM
- GI50 (HCT-116 colon): 0.225 µM
- TGI (HCT-116 colon): > 50 µM
- GI50 (OVCAR-4 ovarian): > 50 µM
- TGI (OVCAR-4 ovarian): > 50 µM
- GI50 (IGROV1 ovarian): 0.446 µM
- TGI (IGROV1 ovarian): > 50 µM
- GI50 (OVCAR-8 ovarian): 0.223 µM
- TGI (OVCAR-8 ovarian): > 50 µM
- GI50 (SF-268 CNS): 0.561 µM
- TGI (SF-268 CNS): > 50 µM
- GI50 (NCI-H522 lung): 0.114 µM
- TGI (NCI-H522 lung): 0.432 µM
- GI50 (SF-539 CNS): 0.131 µM
- TGI (SF-539 CNS): 0.473 µM
- GI50 (SK-MEL-28 melanoma): 8.24 µM
- TGI (SK-MEL-28 melanoma): > 50 µM
- GI50 (U251 CNS): 0.2 µM
- TGI (U251 CNS): > 50 µM
- GI50 (BT-549 breast): 0.458 µM
- TGI (BT-549 breast): > 50 µM
- GI50 (SK-MEL-5 melanoma): 0.175 µM
- TGI (SK-MEL-5 melanoma): > 50 µM
- GI50 (NCI/ADR-RES ovarian): 0.167 µM
- TGI (NCI/ADR-RES ovarian): > 50 µM
- GI50 (OVCAR-3 ovarian): 0.162 µM
- TGI (OVCAR-3 ovarian): 7.75 µM
- GI50 (MALME-3M melanoma): 26.5 µM
- TGI (MALME-3M melanoma): > 50 µM
- GI50 (HCT-15 colon): 0.227 µM
- TGI (HCT-15 colon): > 50 µM
- GI50 (MOLT-4 leukemia): 0.213 µM
- TGI (MOLT-4 leukemia): > 50 µM
- GI50 (UO-31 renal): 0.43 µM
- TGI (UO-31 renal): > 50 µM
- GI50 (SN12C renal): 0.406 µM
- TGI (SN12C renal): > 50 µM
- GI50 (RXF 393 renal): 0.162 µM
- TGI (RXF 393 renal): > 50 µM
- GI50 (HOP-62 NSCLC): 0.24 µM
- TGI (HOP-62 NSCLC): > 50 µM
- GI50 (OVCAR-5 ovarian): 0.932 µM
- TGI (OVCAR-5 ovarian): > 50 µM
- GI50 (SF-295 CNS): 0.148 µM
- TGI (SF-295 CNS): 14 µM
- GI50 (A549 NSCLC): 0.265 µM
- TGI (A549 NSCLC): > 50 µM
- GI50 (MDA-MB-435): 0.0894 µM
- TGI (MDA-MB-435): 0.237 µM
- GI50 (HT29 colon): 0.175 µM
- TGI (HT29 colon): > 50 µM
- GI50 (HL-60(TB) leukemia): 0.12 µM
- TGI (HL-60(TB) leukemia): 0.298 µM

Compound: N#CCCC(CC#N)N1CCN(CCO)CC1 (stereo unspecified)
- TGI (SK-OV-3 ovarian): > 100 µM
- TGI (SNB-75 CNS): > 100 µM
- TGI (MDA-MB-231 breast): > 100 µM
- TGI (HCC-2998 colon): > 100 µM
- TGI (HS 578T breast): > 100 µM
- TGI (HOP-92 NSCLC): > 100 µM
- TGI (M14 melanoma): > 100 µM
- TGI (EKVX NSCLC): > 100 µM
- TGI (DU-145 prostate): > 100 µM
- TGI (K-562 leukemia): > 100 µM
- TGI (A498 renal): > 100 µM
- TGI (ACHN renal): > 100 µM
- TGI (786-0 renal): > 100 µM
- TGI (KM12 colon): > 100 µM
- TGI (MCF7 breast): > 100 µM
- TGI (SR leukemia): > 100 µM
- TGI (UACC-257 melanoma): > 100 µM
- TGI (UACC-62 melanoma): > 100 µM
- TGI (SW-620 colon): > 100 µM
- TGI (TK-10 renal): > 100 µM
- TGI (NCI-H226 lung): > 100 µM
- TGI (RPMI-8226 leukemia): > 100 µM
- TGI (SNB-19 CNS): > 100 µM
- TGI (CCRF-CEM leukemia): > 100 µM
- TGI (T-47D breast): > 100 µM
- TGI (NCI-H23 lung): > 100 µM
- TGI (NCI-H460 lung): > 100 µM
- TGI (COLO 205 colon): > 100 µM
- TGI (HCT-116 colon): > 100 µM
- TGI (OVCAR-4 ovarian): > 100 µM
- TGI (IGROV1 ovarian): > 100 µM
- TGI (OVCAR-8 ovarian): > 100 µM
- TGI (SF-268 CNS): > 100 µM
- TGI (SF-539 CNS): > 100 µM
- TGI (SK-MEL-28 melanoma): > 100 µM
- TGI (U251 CNS): > 100 µM
- TGI (SK-MEL-5 melanoma): > 100 µM
- TGI (NCI/ADR-RES ovarian): > 100 µM
- TGI (MALME-3M melanoma): > 100 µM
- TGI (HCT-15 colon): > 100 µM
- TGI (MOLT-4 leukemia): > 100 µM
- TGI (UO-31 renal): > 100 µM
- TGI (SN12C renal): > 100 µM
- TGI (RXF 393 renal): > 100 µM
- TGI (HOP-62 NSCLC): > 100 µM
- TGI (OVCAR-5 ovarian): > 100 µM
- TGI (SF-295 CNS): > 100 µM
- TGI (A549 NSCLC): > 100 µM
- TGI (MDA-MB-435): > 100 µM
- TGI (HT29 colon): > 100 µM
- TGI (HL-60(TB) leukemia): > 100 µM

Compound: CSCCCC(NC(=O)CNC(=O)C1CCCN1C(=O)C(Cc1ccc(O)cc1)NC(=O)C(Cc1ccccc1)NC(=O)C(CCCN=C(N)N)NC(=O)C(CC(=O)O)NC(=O)C1CCCN1C(=O)C(CC(=O)O)NC(=O)C1CCCN1C(=O)C1CCCN1C(=O)CN)C(N)=O (stereo unspecified) (H-GPPDPDRFYPG[X38]-NH2; configuration not given here)
- TGI (HOP-92 NSCLC): > 50 µM
- TGI (UACC-257 melanoma): > 50 µM
- TGI (NCI-H226 lung): > 50 µM
- TGI (NCI-H23 lung): > 50 µM
- TGI (BT-549 breast): > 50 µM
